According to article PMC9913425, “Pentacyclic Triterpenoids-Based Ionic Compounds: Synthesis, Study of Structure–Antitumor Activity Relationship, Effects on Mitochondria and Activation of Signaling Pathways of Proliferation, Genome Reparation and Early Apoptosis” (Cancers, 2023):

How the values were obtained:
Type in all cases: cell-based
[1] = test system: HEK293; experiment: In vitro cytotoxicity, IC50 by flow cytometry (Guava ViaCount); details: conditionally normal
Method in brief: (§1)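 Suspension lines kept in RPMI 1640 with 10% FBS and […] at 37 °C, 5% CO2; cells seeded at 5 × 10^4 per well and incubated overnight before compound exposure. Viability counted by flow cytometry with Guava ViaCount staining to derive IC50.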

[2] = test system: U937; experiment: as above
Method in brief: as §1

[3] = test system: Jurkat; experiment: as above; details: Jurkat cells
Method in brief: as §1

[4] = test system: K562; experiment: as above
Method in brief: as §1

[5] = test system: Chk1; experiment: Luminex xMAP DNA Damage/Genotoxicity panel, phosphorylated Chk1; details: Jurkat cells; 12a 0.006 µM, 13d 0.004 µM per 100,000 cells; 6 and 12 h
Description: [Worded in the source for another target; used here, by the source, with some conditions changed.] (§2) The determination of proteins in a cell by Luminex xMAP technology is characterized by the presence of multiplex multiparametric analysis with the simultaneous use of a multiplex of antibodies with a fluorescent label and magnetic particles, thereby resulting in an increase in the sensitivity of the technique and expansion of the dynamic range, as well as an increase in detection accuracy. Luminex XMAP technology provides a simultaneous analysis of a sufficient number of different proteins in various types of biological fluids (plasma, serum, cerebrospinal fluid, follicular fluid, tissue lysate, etc.) and in cell supernatants. Consequently, multiplexing saves time/costs and ensures the same conditions for the measurements, which is essential for significance and statistical processing.
(§3) Magnetic microspheres (stained inside with two fluorescent dyes) in combination with monoclonal antibodies against the analyzed analytes (the main intracellular kinases in this case) are incubated with the samples and standards; then, the samples/standards are incubated with biotinylated monoclonal antibodies against the analyzed analytes and, finally, with a solution of streptavidin–phycoerythrin. The Luminex technology identifies the different proteins present in each well and converts the mean fluorescence intensity (MFI) of each measured cytokine to pg/mL using software and standard curves. This approach is successfully applied in fundamental and clinical research. In this work, we analyzed various protein analytes that make up the phosphorylated and non-phosphorylated fractions of the main kinases in the signaling pathways: CREB, JNK, NFkB, p38, ERK1/2, Akt, p70S6K, STAT3, STAT5 proteins in six samples of lysates of Jurkat tumor cells by Luminex technology (MILLIPLEX® MAP 9-Plex Multi-Pathway 9-plex Magnetic Bead Kit).

[6] = test system: p21; experiment: Luminex xMAP panel, p21 protein content; details: Jurkat cells; 12a 0.006 µM, 13d 0.004 µM per 100,000 cells; first 6 h
[7] = test system: γH2AX; experiment: Luminex xMAP DNA Damage/Genotoxicity panel, phosphorylated γH2AX; details: Jurkat cells; 6 and 12 h
Description: as §2, with “processing. Simultaneous measurement of cytokines by bead multiplex analysis has certain similarities with ELISA, in particular the use of antibodies, but has a fundamental difference in using magnetic fluorescent beads coupled to antikinase monoclonal antibodies.” for “processing.”
as §3
Phosphorylation of histone H2AX at serine 139 (γH2AX) is an early stage in the cellular response to DNA damage, when the damage brings about formation of a double-strand break (DSB). γH2AX foci, considered as markers of DNA double-strand breaks, are easily detected by immunofluorescence microscopy and flow cytometry. The two main signaling pathways ATM/Chk2 and ATR/Chk1 respond to DNA damage and both lead to H2AX phosphorylation, but the ATR/Chk1 pathway causes γH2AX formation to a much lesser extent. The role of γH2AX in DNA repair is also discussed.
Incubation time with the test compounds was 6 and 12 h. p < 0.001 (***).

[8] = test system: Jurkat tumor cells; experiment: Release of cytochrome c from mitochondria (anti-cytochrome C FITC, cytofluorimetry); details: compound at IC50, incubation 3 h
Protocol: Staurosporine (an inhibitor of most kinases in the cell) was taken as a control compound.
Figure 2 Release of cytochrome C from mitochondria under the influence of ionic liquids in Jurkat tumor cells. Anti-cytochrome C FITC antibodies were used for staining. […] Incubation with test compounds was 3 h. TEXT PRINTED IN THE PICTURE: (b) 344: Negative 30.82%; Positive 64.67% | (c) 214: Negative 40.58%; Positive 56.16% | (d) 346: Negative 19.43%; Positive 76.96% DOUBTS OF THE COPYIST ABOUT THIS PICTURE: The picture prints only sample codes (344, 214, 346; each followed by '/ E3'), not compound numbers or names; these codes are used as labels. / Panel a (sample code 211-4h, Negative 5.82%, Positive 93.68%) appears to be an untreated control, not a substance, and is left out. / Print is small: b, Negative 30.82% (8 or 6); c, Positive 56.16% (6 or 8); d, Positive 76.96% (6 or 8, 9 or 8).

[9] = test system: ATR kinase; experiment: Luminex xMAP DNA Damage/Genotoxicity panel, ATR kinase content; details: Jurkat cells; 12a 0.006 µM, 13d 0.004 µM per 100,000 cells; 6 and 12 h

## CC1(C)CC[C@]2(C(=O)OCCCCCC[n+]3ccccc3)CC[C@]3(C)C(=CCC4[C@@]5(C)CC[C@H](O)C(C)(C)C5CC[C@]43C)C2C1 (stereo partly drawn) [12a, 1-(6-{[(3β)-3-Hydroxyolean-12-en-28-oyl]oxy}hexyl)-pyridinium bromide]
[1]; Homo sapiens, HEK293, HEK293 cells
  IC50: 44 ± 4 nM
[2]; Homo sapiens, U-937, U937 cells
  IC50: 6 ± 1 nM
[3]; Homo sapiens, Jurkat
  IC50: 6 ± 1 nM
[4]; Homo sapiens, K562, K562 cells
  IC50: 7 ± 1 nM
[5]
  content of phosphorylated checkpoint kinase Chk1: significantly decreases
[6]
  expression of p21 protein: significantly increased
[7]
  level of γH2AX (accumulation): low levels
[8]
  cytochrome c release from mitochondria (cytochrome C Negative cells): 40.58%
[9]
  level of ATR kinase: significant increase

## CC(=O)[O-].C[n+]1ccn(CCCCCCOC(=O)[C@]23CCC(C)(C)CC2C2=CCC4[C@@]5(C)CC[C@H](O)C(C)(C)C5CC[C@@]4(C)[C@]2(C)CC3)c1 (stereo partly drawn) [13d, 1-(6-{[(3β)-3-Hydroxyolean-12-en-28-oyl]oxy}hexyl)-3-methylimidazolium Acetate]
[1]; HEK293 cells
  IC50: 29 ± 2 nM
[2]; U937 cells
  IC50: 5 ± 1 nM
[3]
  IC50: 4 ± 1 nM
[4]; K562 cells
  IC50: 6 ± 1 nM
[5]
  content of phosphorylated checkpoint kinase Chk1: significantly decreases
[6]
  expression of p21 protein: significantly increased
[7]
  level of γH2AX (accumulation): low levels
[8]
  cytochrome c release from mitochondria (cytochrome C Negative cells): 19.43%
[9]
  level of ATR kinase: significant increase
